ChEMBL document CHEMBL1201862, “PubChem BioAssay data set” (2004)
Active and inactive are the calls of the source.

Key:
Cytochrome P450 1A2 = target: T1, Cytochrome P450 1A2 (Homo sapiens, UniProt P05177);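 also: PubChem cytochrome P450 panel assay, CYP1A2 panel member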
T1 sequence (P05177 whole entry): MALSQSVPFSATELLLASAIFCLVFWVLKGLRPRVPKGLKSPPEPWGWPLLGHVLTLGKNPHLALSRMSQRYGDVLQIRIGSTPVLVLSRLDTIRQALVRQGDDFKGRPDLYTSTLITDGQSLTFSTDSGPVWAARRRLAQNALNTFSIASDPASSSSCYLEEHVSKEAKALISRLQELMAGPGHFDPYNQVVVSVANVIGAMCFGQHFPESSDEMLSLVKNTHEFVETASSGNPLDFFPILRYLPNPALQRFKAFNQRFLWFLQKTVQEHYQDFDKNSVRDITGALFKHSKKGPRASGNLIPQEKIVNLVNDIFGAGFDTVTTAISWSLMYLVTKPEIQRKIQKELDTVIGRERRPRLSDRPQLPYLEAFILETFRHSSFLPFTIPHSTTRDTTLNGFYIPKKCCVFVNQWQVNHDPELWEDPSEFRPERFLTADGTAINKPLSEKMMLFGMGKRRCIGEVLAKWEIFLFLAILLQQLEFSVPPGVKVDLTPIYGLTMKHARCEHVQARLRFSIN

Cytochrome P450 2C9 = Cytochrome P450 2C9 (Homo sapiens, UniProt P11712)
Chain of Cytochrome P450 2C9 (P11712 whole entry): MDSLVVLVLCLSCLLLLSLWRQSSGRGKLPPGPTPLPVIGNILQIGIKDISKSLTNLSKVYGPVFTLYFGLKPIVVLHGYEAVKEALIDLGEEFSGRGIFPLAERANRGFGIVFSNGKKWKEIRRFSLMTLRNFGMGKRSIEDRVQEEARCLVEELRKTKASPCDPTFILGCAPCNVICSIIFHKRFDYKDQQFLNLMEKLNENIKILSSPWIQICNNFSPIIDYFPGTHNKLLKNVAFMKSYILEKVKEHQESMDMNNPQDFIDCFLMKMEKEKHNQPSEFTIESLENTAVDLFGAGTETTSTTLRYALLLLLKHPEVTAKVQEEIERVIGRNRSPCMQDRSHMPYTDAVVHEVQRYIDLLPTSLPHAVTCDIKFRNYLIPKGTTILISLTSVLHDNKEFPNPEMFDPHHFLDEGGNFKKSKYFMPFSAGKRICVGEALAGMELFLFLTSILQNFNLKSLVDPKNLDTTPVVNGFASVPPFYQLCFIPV

Cytochrome P450 3A4 = Cytochrome P450 3A4 (Homo sapiens, UniProt P08684);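 also: CYP3A4 tested as one member of a cytochrome P450 panel screen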
Chain of Cytochrome P450 3A4 (P08684 whole entry): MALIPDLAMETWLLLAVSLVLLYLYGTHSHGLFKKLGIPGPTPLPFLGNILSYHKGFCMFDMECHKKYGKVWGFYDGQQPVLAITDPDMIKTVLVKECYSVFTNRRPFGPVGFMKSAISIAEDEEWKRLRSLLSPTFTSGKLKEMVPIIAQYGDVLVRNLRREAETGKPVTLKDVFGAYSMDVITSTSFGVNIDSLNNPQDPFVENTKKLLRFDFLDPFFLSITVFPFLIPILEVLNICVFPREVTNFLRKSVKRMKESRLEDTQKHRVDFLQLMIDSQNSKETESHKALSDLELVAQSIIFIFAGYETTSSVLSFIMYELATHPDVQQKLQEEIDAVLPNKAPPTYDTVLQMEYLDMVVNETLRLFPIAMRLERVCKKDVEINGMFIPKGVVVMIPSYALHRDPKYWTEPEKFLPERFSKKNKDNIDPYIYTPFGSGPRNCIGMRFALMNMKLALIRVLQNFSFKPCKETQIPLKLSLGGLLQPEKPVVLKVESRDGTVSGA

[1] = target: Glucose-6-phosphate 1-dehydrogenase (Homo sapiens, UniProt P11413); test: human G6PD enzyme inhibitors, dose response, selectivity assay for P. falciparum G6PD inhibitor project, biochemical, fluorescence (AID 504792); assay type: functional
Chain of Glucose-6-phosphate 1-dehydrogenase (P11413 whole entry): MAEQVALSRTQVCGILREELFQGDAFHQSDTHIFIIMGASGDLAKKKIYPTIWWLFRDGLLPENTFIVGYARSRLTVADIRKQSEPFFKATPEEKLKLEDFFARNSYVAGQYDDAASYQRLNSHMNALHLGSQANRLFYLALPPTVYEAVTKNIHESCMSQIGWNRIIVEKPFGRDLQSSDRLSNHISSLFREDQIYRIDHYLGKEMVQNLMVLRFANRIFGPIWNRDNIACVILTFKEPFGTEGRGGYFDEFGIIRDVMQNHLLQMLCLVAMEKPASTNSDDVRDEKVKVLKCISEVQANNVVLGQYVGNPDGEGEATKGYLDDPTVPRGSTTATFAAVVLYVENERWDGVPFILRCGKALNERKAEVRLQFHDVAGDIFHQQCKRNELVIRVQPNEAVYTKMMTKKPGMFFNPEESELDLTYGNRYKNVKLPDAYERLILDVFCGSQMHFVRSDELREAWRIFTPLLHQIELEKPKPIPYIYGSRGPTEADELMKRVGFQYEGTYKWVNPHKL

[2] = target: Tyrosine-protein phosphatase non-receptor type 11 (Homo sapiens, UniProt Q06124); test: SHP2 phosphatase inhibition, dose response, selectivity assay for STEP inhibitor project, biochemical (AID 602367); assay type: functional; conditions: read-out: IC50_Mean
Chain of Tyrosine-protein phosphatase non-receptor type 11 (Q06124 whole entry): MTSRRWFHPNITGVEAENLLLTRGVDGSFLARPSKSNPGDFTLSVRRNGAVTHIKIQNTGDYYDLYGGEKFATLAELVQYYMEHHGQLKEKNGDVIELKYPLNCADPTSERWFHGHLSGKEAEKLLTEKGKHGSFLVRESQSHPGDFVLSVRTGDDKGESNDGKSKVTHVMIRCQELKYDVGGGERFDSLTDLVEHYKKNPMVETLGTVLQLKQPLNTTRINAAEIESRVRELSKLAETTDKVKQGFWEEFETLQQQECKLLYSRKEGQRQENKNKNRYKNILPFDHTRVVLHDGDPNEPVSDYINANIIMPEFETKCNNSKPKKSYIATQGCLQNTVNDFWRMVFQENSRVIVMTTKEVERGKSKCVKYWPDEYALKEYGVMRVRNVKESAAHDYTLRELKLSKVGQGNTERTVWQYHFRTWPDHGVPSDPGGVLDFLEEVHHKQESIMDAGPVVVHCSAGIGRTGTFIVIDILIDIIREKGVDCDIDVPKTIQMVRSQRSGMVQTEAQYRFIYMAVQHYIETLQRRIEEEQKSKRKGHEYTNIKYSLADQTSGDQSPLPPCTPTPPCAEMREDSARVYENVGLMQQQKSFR

[3] = target: Dual specificity protein phosphatase 3 (Homo sapiens, UniProt P51452); test: VHR phosphatase inhibition, dose response, selectivity assay for STEP inhibitor project, biochemical (AID 602374); assay type: functional; conditions: read-out: IC50_Mean
Chain of Dual specificity protein phosphatase 3 (P51452 whole entry): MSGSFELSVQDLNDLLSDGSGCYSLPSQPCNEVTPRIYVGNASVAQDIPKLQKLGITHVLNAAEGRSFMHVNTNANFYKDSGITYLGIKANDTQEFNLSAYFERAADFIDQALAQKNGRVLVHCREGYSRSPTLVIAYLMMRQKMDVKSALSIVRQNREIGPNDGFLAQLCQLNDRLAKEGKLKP

[4] = target: Tyrosine-protein phosphatase non-receptor type 5 (Homo sapiens, UniProt P54829); test: STEP phosphatase inhibitors, confirmation, biochemical, fluorescence intensity, uHTS hits (AID 602372); assay type: functional; conditions: read-out: IC50_Mean
Chain of Tyrosine-protein phosphatase non-receptor type 5 (P54829 whole entry): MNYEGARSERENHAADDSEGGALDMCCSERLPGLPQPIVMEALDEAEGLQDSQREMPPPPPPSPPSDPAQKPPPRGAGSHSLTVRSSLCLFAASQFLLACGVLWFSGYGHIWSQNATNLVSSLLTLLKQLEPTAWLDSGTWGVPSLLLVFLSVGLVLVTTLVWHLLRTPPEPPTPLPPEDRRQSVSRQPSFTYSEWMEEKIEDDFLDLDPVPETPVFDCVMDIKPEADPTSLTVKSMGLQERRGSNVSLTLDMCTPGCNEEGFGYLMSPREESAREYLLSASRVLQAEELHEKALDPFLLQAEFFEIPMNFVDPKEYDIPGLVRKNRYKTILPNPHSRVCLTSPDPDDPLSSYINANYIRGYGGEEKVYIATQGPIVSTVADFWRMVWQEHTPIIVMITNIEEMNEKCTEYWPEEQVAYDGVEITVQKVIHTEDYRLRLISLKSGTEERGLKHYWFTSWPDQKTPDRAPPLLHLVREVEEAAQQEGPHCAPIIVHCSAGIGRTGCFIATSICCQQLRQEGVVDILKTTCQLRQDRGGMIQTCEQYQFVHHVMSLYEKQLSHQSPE

[5] = target: T2, Tyrosine-protein phosphatase non-receptor type 7 (Homo sapiens, UniProt P35236); assay type: functional
T2 sequence (P35236 whole entry): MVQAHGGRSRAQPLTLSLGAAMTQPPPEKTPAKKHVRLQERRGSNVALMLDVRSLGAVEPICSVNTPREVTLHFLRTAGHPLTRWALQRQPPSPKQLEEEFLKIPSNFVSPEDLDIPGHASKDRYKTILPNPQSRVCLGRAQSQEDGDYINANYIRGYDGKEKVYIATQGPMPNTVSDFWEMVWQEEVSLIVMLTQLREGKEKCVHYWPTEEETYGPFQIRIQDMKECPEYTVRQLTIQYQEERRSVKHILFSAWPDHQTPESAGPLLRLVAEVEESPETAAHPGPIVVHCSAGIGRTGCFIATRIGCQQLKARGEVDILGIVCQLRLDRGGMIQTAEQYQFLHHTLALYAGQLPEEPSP

[6] = Luminescence Cell-Based Dose Response HTS to Identify Activators of Luciferase Translation or Activity in H4 […] Cells. [Related pubchem assays: 1829 (Project Summary), 1814 (Primary HTS)]; assay type: functional
[7] = Luminescence Cell-Based Dose Response to Identify Activators of Luciferase Translation or Activity in H4-C Neuroglioblastoma Cells. [Related pubchem assays: 1829 (Project Summary), 1814 (Primary HTS)]; assay type: functional
[8] = Luminescence Cell-Based Dose Confirmation HTS to Identify Activators of 5'UTR Stem-Loop Driven Alpha-Synuclein mRNA Translation in H4 Neuroglioblastoma Cells. [Related pubchem assays: 1829 (Project Summary), 1814 (Primary HTS)]; assay type: functional
[9] = Luminescence Cell-Based Dose Response to Identify Activators of 5'UTR Stem-Loop Driven Prion Protein mRNA Translation in H4-C Neuroglioblastoma Cells. [Related pubchem assays: 1829 (Project Summary), 1814 (Primary HTS)]; assay type: functional
[10] = target: T3, Tyrosine-protein phosphatase non-receptor type 22 (Homo sapiens, UniProt Q9Y2R2); assay type: functional
T3 sequence (Q9Y2R2 whole entry): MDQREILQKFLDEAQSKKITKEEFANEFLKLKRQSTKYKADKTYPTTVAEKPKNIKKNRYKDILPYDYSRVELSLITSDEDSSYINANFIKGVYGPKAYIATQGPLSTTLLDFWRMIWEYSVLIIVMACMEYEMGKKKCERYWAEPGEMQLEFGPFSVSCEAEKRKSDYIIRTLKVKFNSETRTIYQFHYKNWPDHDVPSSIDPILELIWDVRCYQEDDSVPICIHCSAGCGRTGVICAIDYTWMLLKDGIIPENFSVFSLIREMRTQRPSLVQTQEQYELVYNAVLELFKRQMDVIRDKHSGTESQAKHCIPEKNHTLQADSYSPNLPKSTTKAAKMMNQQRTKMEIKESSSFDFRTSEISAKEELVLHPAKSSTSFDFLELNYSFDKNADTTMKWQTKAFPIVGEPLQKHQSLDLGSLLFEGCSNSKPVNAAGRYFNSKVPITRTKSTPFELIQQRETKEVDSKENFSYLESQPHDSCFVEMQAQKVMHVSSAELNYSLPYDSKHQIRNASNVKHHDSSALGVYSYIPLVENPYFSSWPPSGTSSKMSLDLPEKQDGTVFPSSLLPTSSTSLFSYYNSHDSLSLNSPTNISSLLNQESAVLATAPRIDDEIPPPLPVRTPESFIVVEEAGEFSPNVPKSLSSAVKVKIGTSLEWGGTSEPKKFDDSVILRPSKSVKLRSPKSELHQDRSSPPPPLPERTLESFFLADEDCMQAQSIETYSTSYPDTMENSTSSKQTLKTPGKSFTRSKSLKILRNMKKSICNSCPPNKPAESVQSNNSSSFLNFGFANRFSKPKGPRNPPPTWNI

H4 = test: Luminescence Cell-Based Dose Response HTS to Identify Activators of 5'UTR Stem-Loop Driven Prion Protein mRNA Translation in H4 Neuroglioblastoma Cells. [Related pubchem assays: 1829 (Project Summary), 1814 (Primary HTS)]; assay type: functional; conditions: Homo sapiens
[11] = Luminescence Cell-Based Dose Confirmation to Identify Activators of 5'UTR Stem-Loop Driven Alpha-Synuclein mRNA Translation in H4 Neuroglioblastoma Cells. [Related pubchem assays: 1829 (Project Summary), 1814 (Primary HTS)]; assay type: functional
[12] = target: T3, Tyrosine-protein phosphatase non-receptor type 22; assay type: functional; remark: listed apart in the source
HeLa = test: HeLa cell cytotoxicity, dose response, cytotoxicity control for MITF activator project, CellTiter-Glo luminescence, cherry-pick samples (AID 540259); assay type: functional, cell-based; conditions: Homo sapiens
[13] = HEp-2 cell cytotoxicity, dose response, cytotoxicity control for RSV inhibitor project, HTS (AID 2410); assay type: functional; conditions: human respiratory syncytial virus
Vero = test: cells; assay type: functional, cell-based; conditions: Chlorocebus sabaeus

**Q.** With `COc1ccc(NC(=O)N2CC[C@@]3(CCCN(C(=O)c4c(C)noc4C)C3)C2)cc1` as the molecule, how does the AC50 (Cytochrome P450 1A2) read?
**A.** inconclusive

**Q.** What about the AC50 (Cytochrome P450 2C9) of the same molecule?
**A.** inconclusive

**Q.** What about the AC50 (Cytochrome P450 3A4) of the same molecule?
**A.** 7.94 µM (inconclusive)

**Q.** Which results are given for `O=S(=O)(Nc1ccc(Cl)cc1)c1ccc(N2CCOCC2)c(NC(=S)NCCN2CCOCC2)c1`?
**A.** IC50 [1]: > 80 µM (inactive); IC50 [2]: 1.1 µM (active); IC50 [3]: 342 nM (active); IC50 [4]: 8.03 µM (active)

**Q.** With `CCCCCOc1ccc(CN2CCOCC2)cc1Cl` as the molecule, how does the IC50 [5] read?
**A.** > 79.4 µM (inactive)

**Q.** And the EC50 [6]?
**A.** < 100 nM (inconclusive)

**Q.** What about the EC50 [7] of the same molecule?
**A.** 1.05 µM (active)

**Q.** And the EC50 [8]?
**A.** < 100 nM (active)

**Q.** And the EC50 [9]?
**A.** 1.3 µM (active)

**Q.** And the IC50 [10]?
**A.** > 79.4 µM (inactive)

**Q.** What about the EC50 (H4) of the same molecule?
**A.** 35.5 µM (active)

**Q.** And the EC50 [11]?
**A.** 731 nM (active)

**Q.** What about the IC50 [12] of the same molecule?
**A.** > 79.4 µM (inactive)

**Q.** Which AC50 (HeLa) does the source give for `CCCC(=O)Nc1ccc(C#Cc2ccccc2)cc1` here?
**A.** 173 µM (active)

**Q.** With `CCCCc1nc2cc(C(=O)N3CCN(c4nc(C)cnc4C)CC3)ccc2o1` as the molecule, how does the AC50 (HeLa) read?
**A.** 47.3 µM (active)

**Q.** For `CSc1nnc2c3ccccc3n(CCc3ccccc3)c2n1`, which CC50 [13] is on record?
**A.** > 50 µM (active)

**Q.** What about the IC50 (Vero) of the same molecule?
**A.** > 12.5 µM (active)
